According to US11541057B2, “Thienopyrimidinone NMDA receptor modulators and uses thereof” (Cadent Therapeutics, Inc., priority 2015, dated 2023):

Molecular target: T1, NMDA receptor GRIN1/GRIN2B (NR2B) expressed in HEK293 cells (Homo sapiens, UniProt Q13224)
T1 construct: host or cells: HEK293
Test: Reversal of Ro 25-6981-mediated suppression of the Ca2+ response (fluo-8 fluorescence, FDSS) in HEK293 cells expressing GRIN1 and GRIN2B
Assay type: cell-based
Settings: % reversal=100*(R−Rneg)/(Rpos−Rneg) of Ro 25-6981 suppression of co-agonist (glutamate/glycine) Ca2+ response, 10 min pre-incubation, compound concentration not given
Method: HEK293 cells with constructs conferring stable expression of the GRIN1 gene and tetracycline-inducible expression of the GRIN2B gene (Chantest, Cleveland, Ohio) are grown to ˜75% confluence in tissue culture flasks at 37° C., 5% CO2. NR2B expression is induced by overnight incubation with 0.3-0.4 μg/ml tetracycline in the presence of 2.5 mM ARL-15896 at 37° C., followed by moving to 30° C. for 3-5 hours. Cells are next harvested using TripleExpress™ (Life Technologies, Carlsbad, Calif.) according to the manufacturer's instructions, first removing culture medium, rinsing with Dulbecco's phosphate buffered saline (Ca^2+ and Mg^2+-free), and then adding the TripleExpress™ reagent. Harvested cells are spun down, washed twice in Ca^2+- and Mg^2+-free Hank's Balanced Salt Solution with 20 mM HEPES and 10 mM glucose, pH 7.4 (HHnoCa solution), and counted with viability assessed using Trypan Blue. Cells are loaded with fluo-8 Ca^2+-sensitive dye in HHnoCa solution according to the manufacturer's directions (AAT Bioquest, Sunnyvale, Calif.), incubating at 37° C. for 20 minutes followed by 25 minutes at 22-25° C. After a wash in HHnoCa to remove extracellular dye, cells are resuspended in HHnoCa and plated at […] cells per well in a volume of 25 μl/well in 384 well black-wall, clear bottom plates (Hamamatsu, Middlesex, N.J.). Plates are then centrifuged to create a monolayer in the wells and stored in the dark until used.
Prior to analysis, compound plates are prepared with each compound at 6× the final desired concentration. From stock solutions at 10 mM in 100% DMSO, compounds are spotted in the desired amounts using an ECHO liquid handler (Labcyte, Sunnyvale, Calif.) into wells of a 384-well plate and then diluted with 50 μl of HHnoCa containing 750 nM Ro 25-6981 and 120 μM 5,7-dichlorokynurenic acid (both purchased from Tocris Bioscience (Bristol, England) and maintained as 10 mM stock solutions in 100% DMSO). To insure complete compound dissolution, these plates are then placed in an orbital shaker for at least one hour. Also prepared prior to the assay is a co-agonist plate containing HHnoCa with 240 μM glutamate, 2.4 mM glycine, and 7.2 mM CaCl2, which is 2.4× the desired final concentration of each reagent. Both the compound plate and co-agonist plate are 384-well polypropylene plates from Thermo Fisher Scientific, Waltham, Mass.
The assay is performed by first adding 10 μl solution from each well of the compound plate described above to the cell plate using a CyBiWell liquid handler (Analytik Jena AG, Jena, Germany), followed by 10 minutes pre-incubation in the dark. Cell plates are then loaded onto a Hamamatsu FDSS 6000 plate reader. After a 30-second baseline, 25 μl is added to each well from the co-agonist plate, and the fluorescence signal is recorded for another 2 minutes. FDSS software applies shading and autofluorescence correction, and resultant raw fluorescence measurements are exported in the form of a fluorescence ratio for each well to its own reading at time zero in the experiment. In each plate, negative control wells consist of wells where Ro 25-6981 and 5,7 dichlorokynurenic acid are present and co-agonist is applied in the absence of any added assay compound. Under these conditions, the Ca^2+ response to co-agonist is suppressed. Positive control wells also present in each plate contain 5,7 dichlorokynurenic acid but no Ro 25-6981, so that co-agonist addition results in a large Ca^2+ response. Compounds tested are evaluated on the basis of their ability to reverse the suppression of the Ca^2+ response mediated by Ro 25-6981, which is quantified as % reversal=100*(R−Rneg)/(Rpos−Rneg) where R is the fluorescence ratio for the test compound at the end of the experiment and Rneg and Rpos are the end ratios for the negative and positive controls, respectively. […]

T1 sequence (Q13224 27-1484, other chains not shown): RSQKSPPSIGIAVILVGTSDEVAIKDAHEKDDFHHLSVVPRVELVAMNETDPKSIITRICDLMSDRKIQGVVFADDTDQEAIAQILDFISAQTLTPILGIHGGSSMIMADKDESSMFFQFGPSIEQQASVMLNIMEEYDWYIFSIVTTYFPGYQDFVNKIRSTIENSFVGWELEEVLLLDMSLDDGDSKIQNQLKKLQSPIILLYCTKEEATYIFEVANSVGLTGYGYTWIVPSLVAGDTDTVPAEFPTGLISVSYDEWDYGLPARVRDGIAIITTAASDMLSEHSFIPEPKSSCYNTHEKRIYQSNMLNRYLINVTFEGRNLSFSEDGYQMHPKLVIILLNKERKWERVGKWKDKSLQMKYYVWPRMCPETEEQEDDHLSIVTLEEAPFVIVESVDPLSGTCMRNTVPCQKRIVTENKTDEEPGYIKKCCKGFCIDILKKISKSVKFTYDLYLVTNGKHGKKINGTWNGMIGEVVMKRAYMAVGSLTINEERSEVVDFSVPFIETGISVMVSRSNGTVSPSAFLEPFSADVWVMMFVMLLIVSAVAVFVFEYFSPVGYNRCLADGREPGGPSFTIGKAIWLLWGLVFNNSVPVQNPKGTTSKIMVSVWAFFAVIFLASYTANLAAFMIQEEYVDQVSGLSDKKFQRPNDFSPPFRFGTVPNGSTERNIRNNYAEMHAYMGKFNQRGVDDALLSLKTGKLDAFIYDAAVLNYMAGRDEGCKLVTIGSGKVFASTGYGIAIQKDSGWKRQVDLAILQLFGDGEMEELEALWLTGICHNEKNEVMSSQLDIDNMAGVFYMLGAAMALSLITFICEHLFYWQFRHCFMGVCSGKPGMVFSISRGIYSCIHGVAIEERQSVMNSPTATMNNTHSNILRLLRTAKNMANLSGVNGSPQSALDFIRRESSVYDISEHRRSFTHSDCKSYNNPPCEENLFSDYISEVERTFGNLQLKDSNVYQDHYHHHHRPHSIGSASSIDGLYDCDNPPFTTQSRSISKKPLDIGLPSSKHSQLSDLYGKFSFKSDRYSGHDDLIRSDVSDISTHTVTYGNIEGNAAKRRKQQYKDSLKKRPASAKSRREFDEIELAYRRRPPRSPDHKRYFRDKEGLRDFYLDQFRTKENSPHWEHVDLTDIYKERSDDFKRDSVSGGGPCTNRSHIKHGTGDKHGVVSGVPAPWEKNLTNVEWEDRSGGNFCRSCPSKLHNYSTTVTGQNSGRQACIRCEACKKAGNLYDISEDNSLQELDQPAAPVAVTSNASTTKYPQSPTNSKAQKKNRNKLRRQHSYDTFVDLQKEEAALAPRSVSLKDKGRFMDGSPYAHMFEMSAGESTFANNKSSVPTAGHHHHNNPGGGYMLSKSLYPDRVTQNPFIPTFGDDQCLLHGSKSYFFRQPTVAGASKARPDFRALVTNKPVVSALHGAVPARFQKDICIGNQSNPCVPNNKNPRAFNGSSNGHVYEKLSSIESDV

SMILES | Response Recovered (%)
O=C(Cn1cnc2scc(-c3ccc(Cl)cc3)c2c1=O)N1CCC(O)CC1 [Example 1, 5-(4-chlorophenyl)-3-(2-(4-hydroxypiperidin-1-yl)-2-oxoethyl)thieno[2,3-d]pyrimidin-4(3H)-one] | 0
O=C(Cn1cnc2scc(-c3ccc(Cl)cc3)c2c1=O)N1CCC(F)CC1 [Example 2, 5-(4-chlorophenyl)-3-[2-(4-fluoropiperidin-1-yl)-2-oxoethyl]-3H,4H-thieno[2,3-d]pyrimidin-4-one] | 25
CN1CCN(C(=O)Cn2cnc3scc(-c4ccc(Cl)cc4)c3c2=O)CC1 [Example 3, 5-(4-chlorophenyl)-3-[2-(4-methylpiperazin-1-yl)-2-oxoethyl]-3H,4H-thieno└2,3-d┘pyrimidin-4-one] | 3
O=C(Cn1cnc2scc(-c3ccc(Cl)cc3)c2c1=O)N1CCOCC1 [Example 4, 5-(4-chlorophenyl)-3-[2-(morpholin-4-yl)-2-oxoethyl]-3H,4H-thieno└2,3-d┘pyrimidin-4-one] | 3
O=C(Cn1cnc2scc(-c3ccc(Cl)cc3)c2c1=O)NC1CC1 [Example 5, 2-[5-(4-chlorophenyl)-4-oxo-3H,4H-thieno[2,3-d]pyrimidin-3-yl]-N-cyclopropylacetamide] | 2
O=C(Cn1cnc2scc(-c3ccc(Cl)cc3)c2c1=O)N1CCC(O)C1 (stereo not shown) [Example 6, 5-(4-chlorophenyl)-3-[2-(3-hydroxypyrrolidin-1-yl)-2-oxoethyl]-3H,4H-thieno[2,3-d]pyrimidin-4-one] | 3
CN1CCC(NC(=O)Cn2cnc3scc(-c4ccc(Cl)cc4)c3c2=O)C1 (stereo not shown) [Example 7, 2-[5-(4-chlorophenyl)-4-oxo-3H,4H-thieno[2,3-d]pyrimidin-3-yl]-N-(1-methylpyrrolidin-3-yl)acetamide] | 3
O=C(Cn1cnc2scc(-c3ccc(Cl)cc3)c2c1=O)N1CCCCC1 [Example 8, 5-(4-chlorophenyl)-3-[2-oxo-2-(piperidin-1-yl)ethyl]-3H,4H-thieno[2,3-d]pyrimidin-4-one] | 3
O=C(Cn1cnc2scc(-c3ccc(Cl)cc3)c2c1=O)NC1CCC1 [Example 9, 2-[5-(4-chlorophenyl)-4-oxo-3H,4H-thieno[2,3-d]pyrimidin-3-yl]-N-cyclobutylacetamide] | 3
C[C@H]1CCCN1C(=O)Cn1cnc2scc(-c3ccc(Cl)cc3)c2c1=O [Example 10, 5-(4-chlorophenyl)-3-{2-[(2S)-2-methylpyrrolidin-1-yl]-2-oxoethyl}-3H,4H-thieno[2,3-d]pyrimidin-4-one] | 2
O=C(Cn1cnc2scc(-c3ccc(Cl)cc3)c2c1=O)N1CCCC1C(F)(F)F (stereo not shown) [Example 11, 5-(4-chlorophenyl)-3-{2-oxo-2-[2-(trifluoromethyl)pyrrolidin-1-yl]ethyl}-3H,4H-thieno[2,3-d]pyrimidin-4-one] | 8
CC1CCCC(C)N1C(=O)Cn1cnc2scc(-c3ccc(Cl)cc3)c2c1=O (stereo not shown) [Example 12, 5-(4-chlorophenyl)-3-[2-(2,6-dimethylpiperidin-1-yl)-2-oxoethyl]-3H,4H-thieno[2,3-d]pyrimidin-4-one] | −1
CCN(CC)C(=O)Cn1cnc2scc(-c3ccc(Cl)cc3)c2c1=O [Example 13, 2-[5-(4-chlorophenyl)-4-oxo-3H,4H-thieno[2,3-d]pyrimidin-3-yl]-N,N-diethylacetamide] | 5
O=C(Cn1cnc2scc(-c3ccc(Cl)cc3)c2c1=O)N1CCC(F)(F)CC1 [Example 14, 5-(4-chlorophenyl)-3-[2-(4,4-difluoropiperidin-1-yl)-2-oxoethyl]-3H,4H-thieno└2,3-d┘pyrimidin-4-one] | 2
O=C(Cn1cnc2scc(-c3ccc(Cl)cc3)c2c1=O)N1CCC(O)(c2ccccc2)CC1 [Example 15, 5-(4-chlorophenyl)-3-[2-(4-hydroxy-4-phenylpiperidin-1-yl)-2-oxoethyl]-3H,4H-thieno[2,3-d]pyrimidin-4-one] | −1
O=C(Cn1cnc2scc(-c3ccc(Cl)cc3)c2c1=O)N1CCC(F)C1 (stereo not shown) [Example 16, 5-(4-chlorophenyl)-3-[2-(3-fluoropyrrolidin-1-yl)-2-oxoethyl]-3H,4H-thieno[2,3-d]pyrimidin-4-one] | 21
O=C(Cn1cnc2scc(-c3ccc(C(F)(F)F)cc3)c2c1=O)N1CCCC1 [Example 17, 3-[2-oxo-2-(pyrrolidin-1-yl)ethyl]-5-[4-(trifluoromethyl)phenyl]-3H,4H-thieno[2,3-d]pyrimidin-4-one] | 11
O=C(Cn1cnc2scc(-c3ccc(C(F)(F)F)cc3)c2c1=O)N1CCCC1C(F)(F)F (stereo not shown) [Example 18, 3-{2-oxo-2-[2-(trifluoromethyl)pyrrolidin-1-yl]ethyl}-5-[4-(trifluoromethyl)phenyl]-3H,4H-thieno[2,3-d]pyrimidin-4-one] | 8
O=C(Cn1cnc2scc(-c3ccc(Cl)c(C(F)(F)F)c3)c2c1=O)N1CCC(F)C1 (stereo not shown) [Example 19, 5-[4-chloro-3-(trifluoromethyl)phenyl]-3-[2-(3-fluoropyrrolidin-1-yl)-2-oxoethyl]-3H,4H-thieno[2,3-d]pyrimidin-4-one] | 93
O=C(Cn1cnc2scc(-c3ccc(Cl)c(C(F)(F)F)c3)c2c1=O)N1CCCC1 [Example 20, 5-(4-chloro-3-(trifluoromethyl)phenyl)-3-(2-oxo-2-(pyrrolidin-1-yl)ethyl)thieno[2,3-d]pyrimidin-4(3H)-one] | 76
O=C(Cn1cnc2scc(-c3ccc(Cl)c(F)c3)c2c1=O)N1CCCC1 [Example 21, 5-(4-chloro-3-fluorophenyl)-3-(2-oxo-2-(pyrrolidin-1-yl)ethyl)thieno[2,3-d]pyrimidin-4(3H)-one] | 19
O=C(Cn1cnc2scc(-c3ccc(F)cc3)c2c1=O)N1CCCCC1 [Example 24, 5-(4-fluorophenyl)-3-[2-oxo-2-(piperidin-1-yl)ethyl]-3H,4H-thieno[2,3-d]pyrimidin-4-one] | 4
O=C(Cn1cnc2scc(-c3ccc(C(F)(F)F)cc3)c2c1=O)N1CCCCC1 [Example 26, 3-[2-oxo-2-(piperidin-1-yl)ethyl]-5-[4-(trifluoromethyl)phenyl]-3H,4H-thieno[2,3-d]pyrimidin-4-one] | 1
O=C(Cn1cnc2scc(-c3ccc(F)cc3)c2c1=O)N1CCCC1C(F)(F)F (stereo not shown) [Example 27] | 7
Cc1ccc(-c2csc3ncn(CC(=O)N4CCCC4C(F)(F)F)c(=O)c23)cc1 (stereo not shown) [Example 28, 5-(4-methylphenyl)-3-{2-oxo-2-[2-(trifluoromethyl)pyrrolidin-1-yl]ethyl}-3H,4H-thieno[2,3-d]pyrimidin-4-one] | 6
O=C(Cn1cnc2scc(-c3ccc(F)c(Cl)c3)c2c1=O)N1CCCC1 [Example 30, 5-(3-chloro-4-fluorophenyl)-3-[2-oxo-2-(pyrrolidin-1-yl)ethyl]-3H,4H-thieno└2,3-d┘pyrimidin-4-one] | 41
O=C(Cn1cnc2scc(-c3cccc(F)c3)c2c1=O)N1CCCC1 [Example 31, 5-(3-fluorophenyl)-3-[2-oxo-2-(pyrrolidin-1-yl)ethyl]-3H,4H-thieno└2,3-d┘pyrimidin-4-one] | 3
N#Cc1ccc(-c2csc3ncn(CC(=O)N4CCCC4)c(=O)c23)cc1 [Example 32, 4-{4-oxo-3-[2-oxo-2-(pyrrolidin-1-yl)ethyl]-3H,4H-thieno[2,3-d]pyrimidin-5-yl}benzonitrile] | 2
